# From article PMC5218480 (PLoS ONE, 2017)
# Test system: MV-4-11 cells
# Experiment: Gene expression microarray analysis (Affymetrix PrimeView) and GSEA
# Format: cell-based, human
# Parameters: RFU PODN (11730768_x_at) / Fold change /veh PODN (11730768_x_at) / RFU LINC00158 (11744669_a_at) / Fold change /veh LINC00158 (11744669_a_at) / RFU DUSP10 (11751237_a_at) / Fold change /veh DUSP10 (11751237_a_at) / RFU ID3 (11757404_x_at) / Fold change /veh ID3 (11757404_x_at) / RFU PLEKHG5 (11737974_s_at) / Fold change /veh PLEKHG5 (11737974_s_at) / RFU LRRC4B (11730491_at) / Fold change /veh LRRC4B (11730491_at) / RFU GIMAP4 (11747438_a_at) / Fold change /veh GIMAP4 (11747438_a_at) / RFU KRT8 (11758183_x_at) / Fold change /veh KRT8 (11758183_x_at) / RFU CNN1 (11734310_a_at) / Fold change /veh CNN1 (11734310_a_at) / RFU VPS37D (11726825_at) / Fold change /veh VPS37D (11726825_at) / RFU C10orf10 (11716522_x_at) / Fold change /veh C10orf10 (11716522_x_at) / RFU KIR2DL2 /// KIR2DL4 /// KIR2DL5A /// KIR2DL5B /// KIR2DS1 /// KIR2DS2 /// KIR2DS3 /// KIR2DS4 /// KIR3DL3 /// KIR3DL3 /// KIR3DS1 (11738374_at) / Fold change /veh KIR2DL2 /// KIR2DL4 /// KIR2DL5A /// KIR2DL5B /// KIR2DS1 /// KIR2DS2 /// KIR2DS3 /// KIR2DS4 /// KIR3DL3 /// KIR3DL3 /// KIR3DS1 (11738374_at) / RFU C1QL1 (11718748_at) / Fold change /veh C1QL1 (11718748_at) / RFU TMPRSS4 (11747572_a_at) / Fold change /veh TMPRSS4 (11747572_a_at) / RFU HAMP (11756126_x_at) / Fold change /veh HAMP (11756126_x_at) / RFU RNFT2 (11725882_a_at) / Fold change /veh RNFT2 (11725882_a_at) / RFU NR4A2 (11747474_a_at) / Fold change /veh NR4A2 (11747474_a_at) / RFU ABCC12 (11746883_a_at) / Fold change /veh ABCC12 (11746883_a_at) / RFU TMEM136 (11760407_x_at) / Fold change /veh TMEM136 (11760407_x_at) / RFU CLDN22 /// WWC2 (11732394_at) / Fold change /veh CLDN22 /// WWC2 (11732394_at) / RFU HLA-DPB1 (11760878_x_at) / Fold change /veh HLA-DPB1 (11760878_x_at) / RFU SPINT1 (11716480_a_at) / Fold change /veh SPINT1 (11716480_a_at) / RFU GAP43 (11754022_s_at) / Fold change /veh GAP43 (11754022_s_at) / RFU A4GNT (11735810_at) / Fold change /veh A4GNT (11735810_at) / RFU PRB3 (11715151_x_at) / Fold change /veh PRB3 (11715151_x_at) / RFU TUBB4B (11761932_at) / Fold change /veh TUBB4B (11761932_at) / RFU CAPN14 (11732068_a_at) / Fold change /veh CAPN14 (11732068_a_at) / RFU TMCC2 (11721928_a_at) / Fold change /veh TMCC2 (11721928_a_at) / RFU IRGQ (11745062_a_at) / Fold change /veh IRGQ (11745062_a_at) / RFU FAM174B (11720279_a_at) / Fold change /veh FAM174B (11720279_a_at) / RFU TMPRSS4 (11748680_a_at) / Fold change /veh TMPRSS4 (11748680_a_at) / RFU FAM212B (11763350_a_at) / Fold change /veh FAM212B (11763350_a_at) / RFU PLEKHG5 (11743358_a_at) / Fold change /veh PLEKHG5 (11743358_a_at) / RFU ZSCAN30 (11745921_a_at) / Fold change /veh ZSCAN30 (11745921_a_at) / RFU CMKLR1 (11741424_a_at) / Fold change /veh CMKLR1 (11741424_a_at) / RFU LOC101060620 /// MAPK8IP1 (11723275_at) / Fold change /veh LOC101060620 /// MAPK8IP1 (11723275_at) / RFU SPTSSB (11747773_x_at) / Fold change /veh SPTSSB (11747773_x_at) / RFU PRSS12 (11739890_at) / Fold change /veh PRSS12 (11739890_at) / RFU BIN1 (11741810_x_at) / Fold change /veh BIN1 (11741810_x_at) / RFU WNT11 (11732464_a_at) / Fold change /veh WNT11 (11732464_a_at) / RFU C10orf10 (11716521_a_at) / Fold change /veh C10orf10 (11716521_a_at) / RFU C5orf56 (11738089_at) / Fold change /veh C5orf56 (11738089_at) / RFU CYB561 (11721691_x_at) / Fold change /veh CYB561 (11721691_x_at) / RFU ANKRD19P (11752326_a_at) / Fold change /veh ANKRD19P (11752326_a_at) / RFU OR2T12 /// OR2T33 /// OR2T8 (11738714_s_at) / Fold change /veh OR2T12 /// OR2T33 /// OR2T8 (11738714_s_at) / RFU VCAN (11748164_a_at) / Fold change /veh VCAN (11748164_a_at) / RFU JSRP1 (11732532_at) / Fold change /veh JSRP1 (11732532_at) / RFU KRTAP10-11 (11738290_x_at) / Fold change /veh KRTAP10-11 (11738290_x_at) / RFU MYO3A (11730013_a_at) / Fold change /veh MYO3A (11730013_a_at) / RFU EBF3 (11725865_a_at) / Fold change /veh EBF3 (11725865_a_at) / RFU CAMK2N1 (11719241_x_at) / Fold change /veh CAMK2N1 (11719241_x_at) / RFU C5orf56 (11738088_a_at) / Fold change /veh C5orf56 (11738088_a_at) / RFU OLFML3 (11715873_a_at) / Fold change /veh OLFML3 (11715873_a_at) / RFU LOC100653217 /// NTM (11731650_a_at) / Fold change /veh LOC100653217 /// NTM (11731650_a_at) / RFU MAPK11 (11762145_a_at) / Fold change /veh MAPK11 (11762145_a_at) / RFU FIZ1 (11724087_x_at) / Fold change /veh FIZ1 (11724087_x_at) / RFU OASL (11726364_x_at) / Fold change /veh OASL (11726364_x_at) / RFU SOX15 (11748057_x_at) / Fold change /veh SOX15 (11748057_x_at) / RFU CD79A (11719716_a_at) / Fold change /veh CD79A (11719716_a_at) / RFU HIST1H1D (11736915_at) / Fold change /veh HIST1H1D (11736915_at) / RFU CASKIN2 (11723855_a_at) / Fold change /veh CASKIN2 (11723855_a_at) / RFU LOC730098 (11760151_x_at) / Fold change /veh LOC730098 (11760151_x_at) / RFU OR4N2 (11742367_at) / Fold change /veh OR4N2 (11742367_at) / RFU PRRT2 (11749266_a_at) / Fold change /veh PRRT2 (11749266_a_at) / RFU SNX32 (11753110_a_at) / Fold change /veh SNX32 (11753110_a_at) / RFU CDHR5 (11726645_a_at) / Fold change /veh CDHR5 (11726645_a_at) / RFU RCAN1 (11760418_a_at) / Fold change /veh RCAN1 (11760418_a_at) / RFU FAM167A (11723789_a_at) / Fold change /veh FAM167A (11723789_a_at) / RFU FAM26E (11764081_at) / Fold change /veh FAM26E (11764081_at) / RFU ISYNA1 (11749810_s_at) / Fold change /veh ISYNA1 (11749810_s_at) / RFU ACY1 (11761880_at) / Fold change /veh ACY1 (11761880_at) / RFU 11764098_at / Fold change /veh 11764098_at / RFU SAMD14 (11745864_x_at) / Fold change /veh SAMD14 (11745864_x_at) / RFU NPB (11741838_a_at) / Fold change /veh NPB (11741838_a_at) / RFU TMPRSS6 (11731388_a_at) / Fold change /veh TMPRSS6 (11731388_a_at) / RFU KRTAP10-2 (11738614_at) / Fold change /veh KRTAP10-2 (11738614_at) / RFU ARHGAP8 /// PRR5-ARHGAP8 (11727945_x_at) / Fold change /veh ARHGAP8 /// PRR5-ARHGAP8 (11727945_x_at) / RFU KRTAP5-7 /// NADSYN1 (11734609_at) / Fold change /veh KRTAP5-7 /// NADSYN1 (11734609_at) / RFU RASL12 (11751679_a_at) / Fold change /veh RASL12 (11751679_a_at) / RFU CDKN2B (11736163_a_at) / Fold change /veh CDKN2B (11736163_a_at) / RFU PRF1 (11729649_at) / Fold change /veh PRF1 (11729649_at) / RFU, ZNF638 /// ZNF638-IT1 / Fold change vs veh, ZNF638 /// ZNF638-IT1 / RFU, PANK3 / Fold change vs veh, PANK3 / RFU, SH3YL1 / Fold change vs veh, SH3YL1 / RFU, ZEB2 / Fold change vs veh, ZEB2 / RFU, NRIP1 / Fold change vs veh, NRIP1 / RFU, PTTG1IP / Fold change vs veh, PTTG1IP / RFU, CAPN2 / Fold change vs veh, CAPN2 / RFU, MED14 / Fold change vs veh, MED14 / RFU, SNORA58 / Fold change vs veh, SNORA58 / RFU, C1orf63 / Fold change vs veh, C1orf63 / RFU, LRRFIP1 / Fold change vs veh, LRRFIP1 / RFU, NDUFAF7 / Fold change vs veh, NDUFAF7 / RFU, SLC12A2 / Fold change vs veh, SLC12A2 / RFU, IBTK / Fold change vs veh, IBTK / RFU, ESF1 / Fold change vs veh, ESF1 / Fold change vs veh, TMEM50B / RFU, TAOK1 / Fold change vs veh, TAOK1 / RFU, ACBD3 / Fold change vs veh, ACBD3 / RFU, TMA16 / Fold change vs veh, TMA16 / RFU, RWDD3 / Fold change vs veh, RWDD3 / RFU, BCAT1 / Fold change vs veh, BCAT1 / RFU, EDEM3 / Fold change vs veh, EDEM3 / RFU, TMEM33 / Fold change vs veh, TMEM33 / RFU, WDR75 / Fold change vs veh, WDR75 / RFU, AHCTF1 / Fold change vs veh, AHCTF1 / RFU, TFRC / Fold change vs veh, TFRC / RFU, ZDHHC17 / Fold change vs veh, ZDHHC17 / RFU, NOM1 / Fold change vs veh, NOM1 / RFU, ARL8B / Fold change vs veh, ARL8B / RFU, ZBTB11 / Fold change vs veh, ZBTB11 / RFU, TAMM41 / Fold change vs veh, TAMM41 / RFU, KIAA1704 /// LOC100996395 / Fold change vs veh, KIAA1704 /// LOC100996395 / RFU, ING1 / Fold change vs veh, ING1 / RFU, TRMT61B / Fold change vs veh, TRMT61B / RFU, FUBP3 / Fold change vs veh, FUBP3 / RFU, TP53 / Fold change vs veh, TP53 / RFU, TNKS2 / Fold change vs veh, TNKS2 / RFU, ZFP14 / Fold change vs veh, ZFP14 / RFU, ACTR2 / Fold change vs veh, ACTR2 / RFU, PPP3R1 / Fold change vs veh, PPP3R1 / RFU, PIK3R1 / Fold change vs veh, PIK3R1 / RFU, HNRNPA1 / Fold change vs veh, HNRNPA1 / RFU, RNF170 / Fold change vs veh, RNF170 / RFU, ZNF28 / Fold change vs veh, ZNF28 / RFU, RNGTT / Fold change vs veh, RNGTT / RFU, OGT / Fold change vs veh, OGT / RFU, BRD1 / Fold change vs veh, BRD1 / RFU, MARS / Fold change vs veh, MARS / RFU, ZNF655 / Fold change vs veh, ZNF655 / RFU, FAHD1 / Fold change vs veh, FAHD1 / RFU, BDP1 / Fold change vs veh, BDP1 / RFU, LRRCC1 / Fold change vs veh, LRRCC1 / RFU, ARID1A / Fold change vs veh, ARID1A / RFU, ZNF146 / Fold change vs veh, ZNF146 / RFU, ZNF330 / Fold change vs veh, ZNF330 / RFU, GPN3 / Fold change vs veh, GPN3 / RFU, C9orf123 / Fold change vs veh, C9orf123 / RFU, N4BP2L2 / Fold change vs veh, N4BP2L2 / RFU, ARFIP1 / Fold change vs veh, ARFIP1 / RFU, FAM179B / Fold change vs veh, FAM179B / RFU, BCL10 / Fold change vs veh, BCL10 / RFU, UHRF1BP1L / Fold change vs veh, UHRF1BP1L / RFU, BET1 / Fold change vs veh, BET1 / RFU, CNOT2 / Fold change vs veh, CNOT2 / RFU, ZNF268 / Fold change vs veh, ZNF268 / Fold change vs veh, ZNF507 / RFU, DGCR2 / Fold change vs veh, DGCR2 / RFU, WDSUB1 / Fold change vs veh, WDSUB1 / Fold change vs veh, HSP90B1 /// MIR3652 / RFU, ADSS / Fold change vs veh, ADSS / RFU, GK / Fold change vs veh, GK / RFU, ZNF148 / Fold change vs veh, ZNF148 / RFU, TAF9 / Fold change vs veh, TAF9 / RFU, SLC1A5 / Fold change vs veh, SLC1A5 / RFU, SLMO2 / Fold change vs veh, SLMO2 / RFU, ABCC4 / Fold change vs veh, ABCC4 / RFU, LOC101060439 /// RAP1B / Fold change vs veh, LOC101060439 /// RAP1B / RFU, RFX7 / Fold change vs veh, RFX7 / RFU, GTPBP10 / Fold change vs veh, GTPBP10 / RFU, CNEP1R1 / Fold change vs veh, CNEP1R1 / RFU, BIVM-ERCC5 /// ERCC5 / Fold change vs veh, BIVM-ERCC5 /// ERCC5 / RFU, ILF3 / Fold change vs veh, ILF3 / RFU 11762660_at / Fold change /veh 11762660_at / RFU VCAN (11757783_s_at) / Fold change /veh VCAN (11757783_s_at) / RFU DDX43 (11728927_at) / Fold change /veh DDX43 (11728927_at) / RFU KRT8 (11758188_x_at) / Fold change /veh KRT8 (11758188_x_at) / RFU NKD1 (11759106_at) / Fold change /veh NKD1 (11759106_at) / RFU SRD5A1 (11742802_a_at) / Fold change /veh SRD5A1 (11742802_a_at) / RFU TPSAB1 /// TPSB2 (11721975_s_at) / Fold change /veh TPSAB1 /// TPSB2 (11721975_s_at) / RFU GSTM3 (11746129_a_at) / Fold change /veh GSTM3 (11746129_a_at) / RFU IL23R (11737362_x_at) / Fold change /veh IL23R (11737362_x_at) / RFU TMEM51 (11727254_a_at) / Fold change /veh TMEM51 (11727254_a_at) / RFU PIWIL2 (11732686_x_at) / Fold change /veh PIWIL2 (11732686_x_at) / RFU ORM1 (11744905_x_at) / Fold change /veh ORM1 (11744905_x_at) / RFU CCDC152 (11743942_at) / Fold change /veh CCDC152 (11743942_at) / RFU ECM1 (11717891_a_at) / Fold change /veh ECM1 (11717891_a_at) / RFU IL23R (11748794_a_at) / Fold change /veh IL23R (11748794_a_at) / RFU TNFAIP8L3 (11732012_x_at) / Fold change /veh TNFAIP8L3 (11732012_x_at) / RFU MBOAT4 (11741988_at) / Fold change /veh MBOAT4 (11741988_at) / RFU 11764193_at / Fold change /veh 11764193_at / RFU TMEM53 (11763286_at) / Fold change /veh TMEM53 (11763286_at) / RFU MAGEB2 (11727129_at) / Fold change /veh MAGEB2 (11727129_at) / RFU TMEM200A (11744735_a_at) / Fold change /veh TMEM200A (11744735_a_at) / RFU CCDC152 (11751479_a_at) / Fold change /veh CCDC152 (11751479_a_at) / RFU FAM211A (11726209_a_at) / Fold change /veh FAM211A (11726209_a_at) / RFU RGS16 (11746705_a_at) / Fold change /veh RGS16 (11746705_a_at) / RFU VCAN (11755009_s_at) / Fold change /veh VCAN (11755009_s_at) / RFU RHOB (11743442_s_at) / Fold change /veh RHOB (11743442_s_at) / RFU RGS16 (11720943_a_at) / Fold change /veh RGS16 (11720943_a_at) / RFU RGS16 (11720944_at) / Fold change /veh RGS16 (11720944_at) / RFU, VPS4B / Fold change vs veh, VPS4B / RFU, CREB1 / Fold change vs veh, CREB1 / RFU, DNAJC13 / Fold change vs veh, DNAJC13 / RFU, GNAQ / Fold change vs veh, GNAQ / RFU, CDK5R1 / Fold change vs veh, CDK5R1 / RFU, ZRANB3 / Fold change vs veh, ZRANB3 / RFU, CUL4A / Fold change vs veh, CUL4A / RFU, CCNY / Fold change vs veh, CCNY / RFU, UFL1 / Fold change vs veh, UFL1 / RFU, COG3 / Fold change vs veh, COG3 / RFU, DIAPH2 / Fold change vs veh, DIAPH2 / RFU, SKA2 / Fold change vs veh, SKA2 / RFU, AFF3 / Fold change vs veh, AFF3 / RFU, LMF1 / Fold change vs veh, LMF1 / RFU, IPO11 / Fold change vs veh, IPO11 / RFU, DFFB / Fold change vs veh, DFFB / RFU, FOXP1 / Fold change vs veh, FOXP1 / RFU, CARD8 / Fold change vs veh, CARD8 / RFU, STRN3 / Fold change vs veh, STRN3 / RFU, ADK / Fold change vs veh, ADK / RFU, RASSF2 / Fold change vs veh, RASSF2 / RFU, WIPF1 / Fold change vs veh, WIPF1 / RFU, LARP1B / Fold change vs veh, LARP1B / RFU, RASA1 / Fold change vs veh, RASA1 / RFU, RB1 / Fold change vs veh, RB1 / RFU, PPFIA1 / Fold change vs veh, PPFIA1 / RFU, MAT2A / Fold change vs veh, MAT2A / RFU, CCT5 / Fold change vs veh, CCT5 / RFU, WDR92 / Fold change vs veh, WDR92 / RFU, CUX1 / Fold change vs veh, CUX1 / RFU, TTC7A / Fold change vs veh, TTC7A / RFU, TMEM135 / Fold change vs veh, TMEM135 / RFU, DEPTOR / Fold change vs veh, DEPTOR / RFU, CPM / Fold change vs veh, CPM / RFU, DNAJB6 / Fold change vs veh, DNAJB6 / RFU, CACNA2D3 / Fold change vs veh, CACNA2D3 / RFU, DTX4 / Fold change vs veh, DTX4 / RFU, TFCP2 / Fold change vs veh, TFCP2 / RFU, GMCL1 /// GMCL1P1 / Fold change vs veh, GMCL1 /// GMCL1P1 / RFU, AEBP2 / Fold change vs veh, AEBP2 / RFU, SNHG1 /// SNORD22 /// SNORD25 /// SNORD26 /// SNORD27 /// SNORD28 /// SNORD29 /// SNORD31 / Fold change vs veh, SNHG1 /// SNORD22 /// SNORD25 /// SNORD26 /// SNORD27 /// SNORD28 /// SNORD29 /// SNORD31 / Fold change (Aza/veh), C12orf56 (ProbeSet 11735607_a_at) / Fold change (ACY-1035/veh), C12orf56 (ProbeSet 11735607_a_at) / Fold change (Aza/veh), FGFR1OP (ProbeSet 11751329_s_at) / Fold change (ACY-1035/veh), FGFR1OP (ProbeSet 11751329_s_at) / Fold change (Aza/veh), VPS36 (ProbeSet 11739960_a_at) / Fold change (ACY-1035/veh), VPS36 (ProbeSet 11739960_a_at) / RFU SYPL1 (11715823_x_at) / Fold change /veh SYPL1 (11715823_x_at) / RFU IGFBP7 (11715501_s_at) / Fold change /veh IGFBP7 (11715501_s_at) / RFU REEP3 (11722064_at) / Fold change /veh REEP3 (11722064_at) / RFU IGLL1 (11728026_x_at) / Fold change /veh IGLL1 (11728026_x_at): dose or concentration left out as unconfirmed
# Conditions: MV-4-11 cells, 48 hours
smiles,measurement,value
Nc1ccc(-c2cccs2)cc1NC(=O)c1ccc2c(c1)cc(C1CC1)n2CCN1CCOCC1 [ACY-1035],RFU TPSAB1 /// TPSB2 (11721975_s_at),19.29 RFU
